Source: ChEMBL document CHEMBL5705899 (Biochem J, 2014)
Activity calls are given as the source filed them. The calls are words filed in the database; no cut-off is given here.

Columns and labels:
[1] = biological target: Homeodomain-interacting protein kinase 3 (Homo sapiens) (UniProt Q9H422); test: Inhibition of recombinant human N-terminal GST-tagged HIPK3 (161 to 562 residues) expressed in Escherichia coli assessed as remaining activity at 1 uM using MBP as substrate incubated for 30 mins in presence of [gamma-33P]ATP by filter binding method relative to control
[2] = biological target: Phosphatidylinositol 4-phosphate 3-kinase C2 domain-containing subunit beta (Homo sapiens, UniProt O00750); test: Inhibition of human PIK3C2B using PIP2/PS as substrate by ADP-Glo assay
[3] = biological target: Mitogen-activated protein kinase 14 (Homo sapiens) (UniProt Q16539); test: Inhibition of recombinant human N-terminal GST-tagged P38alpha (1 to 360 residues) expressed in Escherichia coli assessed as remaining activity at 1 uM using MBP as substrate incubated for 30 mins in presence of [gamma-33P]ATP by filter binding method relative to control
[4] = biological target: Mitogen-activated protein kinase 13 (Homo sapiens) (UniProt O15264); test: Inhibition of human p38delta at 1 uM using RBER-CHKtide as substrate in presence of 33P-ATP by ProQinase assay
[5] = biological target: Dual specificity tyrosine-phosphorylation-regulated kinase 1A (Homo sapiens) (UniProt Q13627); test: Inhibition of human DYRK1A at 1 uM using RBER-CHKtide as substrate in presence of 33P-ATP by ProQinase assay
[6] = biological target: Activin receptor type-1-like (Homo sapiens) (UniProt P37023); test: Inhibition of human ACVRL1 at 1 uM using casein as substrate in presence of 33P-ATP by ProQinase assay
[7] = biological target: Casein kinase I isoform gamma-3 (Homo sapiens) (UniProt Q9Y6M4); test: Inhibition of human CK1gamma3 at 1 uM using casein as substrate in presence of 33P-ATP by ProQinase assay
[8] = biological target: Platelet-derived growth factor receptor alpha (Homo sapiens) (UniProt P16234); test: Inhibition of recombinant human PDGFRalpha (551 to […] residues) expressed in baculovirus infected Sf21 cells assessed as remaining activity at 1 uM using KKKKEEIYFFFG as substrate incubated for 30 mins in presence of [gamma-33P]ATP by filter binding method relative to control
[9] = biological target: Serine/threonine-protein kinase ULK2 (Homo sapiens) (UniProt Q8IYT8); test: Inhibition of recombinant human ULK2 (1 to 1036 residues) expressed in baculovirus infected Sf21 cells assessed as remaining activity at 1 uM using MBP as substrate incubated for 30 mins in presence of [gamma-33P]ATP by filter binding method relative to control
[10] = biological target: Inhibitor of nuclear factor kappa-B kinase subunit beta (Homo sapiens) (UniProt O14920); test: Inhibition of recombinant human N-terminal His6-tagged IKKbeta (1 to 736 residues) expressed in baculovirus infected Sf21 cells assessed as remaining activity at 1 uM using LDDRHDSGLDSMKDEEY as substrate incubated for 30 mins in presence of [gamma-33P]ATP by filter binding method relative to control
[11] = biological target: Serine/threonine-protein kinase haspin (Homo sapiens) (UniProt Q8TF76); test: Inhibition of human GSG2 at 1 uM using histon H3 as substrate in presence of 33P-ATP by ProQinase assay
[12] = biological target: MAP kinase-interacting serine/threonine-protein kinase 2 (Homo sapiens) (UniProt Q9HBH9); test: Inhibition of recombinant human N-terminal GST/C-terminal His6-tagged MNK2alpha (2 to 465 residues) expressed in Escherichia coli assessed as remaining activity at 1 uM using eIF4E as substrate incubated for 30 mins in presence of [gamma-33P]ATP by filter binding method relative to control
[13] = biological target: Diacylglycerol kinase gamma (Homo sapiens) (UniProt P49619); test: Inhibition of recombinant human N-terminal His6-tagged DGKgamma (1 to 752 residues) expressed in baculovirus expression system at 1 uM using diacyl-glycerol as substrate incubated for 40 mins by ADP-Glo assay
[14] = biological target: Mitogen-activated protein kinase 11 (Homo sapiens) (UniProt Q15759); test: Inhibition of human P38beta at 1 uM using ATF2 as substrate in presence of 33P-ATP by ProQinase assay
[15] = biological target: Tyrosine-protein kinase Lck (Homo sapiens) (UniProt P06239); test: Inhibition of human LCK at 1 uM using polyEY as substrate in presence of 33P-ATP by ProQinase assay
[16] = biological target: Rhodopsin kinase GRK7 (Homo sapiens) (UniProt Q8WTQ7); test: Inhibition of human GRK7 at 1 uM using casein as substrate in presence of 33P-ATP by ProQinase assay
[17] = biological target: Platelet-derived growth factor receptor alpha (Homo sapiens) (UniProt P16234); test: Inhibition of human PDGFRalpha at 1 uM using Poly(Ala,Glu,Lys,Tyr) as substrate in presence of 33P-ATP by ProQinase assay
[18] = biological target: Leukocyte tyrosine kinase receptor (Homo sapiens) (UniProt P29376); test: Inhibition of human LTK at 1 uM using polyEY as substrate in presence of 33P-ATP by ProQinase assay
[19] = biological target: Serine/threonine-protein kinase MRCK alpha (Homo sapiens) (UniProt Q5VT25); test: Inhibition of human CDC42BPA at 1 uM using RB-S6P as substrate in presence of 33P-ATP by ProQinase assay
[20] = biological target: Serine/threonine-protein kinase PAK 3 (Homo sapiens) (UniProt O75914); test: Inhibition of human PAK3 at 1 uM using bio-4xCHKT as substrate in presence of 33P-ATP by ProQinase assay
[21] = biological target: Phosphatidylinositol 4-phosphate 5-kinase type-1 alpha (Homo sapiens, UniProt Q99755); test: Inhibition of PIP5K1A (unknown origin) using D-myo-PIP as substrate incubated for 45 mins by ADP-Glo assay
[22] = biological target: Serine/threonine-protein kinase PLK3 (Homo sapiens) (UniProt Q9H4B4); test: Inhibition of human PLK3 at 1 uM using casein as substrate in presence of 33P-ATP by ProQinase assay
[23] = biological target: TGF-beta receptor type-1 (Homo sapiens) (UniProt P36897); test: Inhibition of human TGFBR1 at 1 uM using RBER-CHKtide as substrate in presence of 33P-ATP by ProQinase assay
[24] = biological target: Cyclin-dependent kinase 5/CDK5 activator 1 (Homo sapiens) (UniProt Q00535+Q15078); test: Inhibition of human CDK5/p35NCK at 1 uM using RBER-CHKtide as substrate in presence of 33P-ATP by ProQinase assay; format: protein-complex assay
[25] = biological target: Tyrosine-protein kinase Fes/Fps (Homo sapiens) (UniProt P07332); test: Inhibition of human FES at 1 uM using polyEY as substrate in presence of 33P-ATP by ProQinase assay
[26] = biological target: Mitogen-activated protein kinase kinase kinase 1 (Homo sapiens) (UniProt Q13233); test: Inhibition of recombinant human N-terminal GST/C-terminal His6-tagged MEKK1 ((877 to 1563 residues) expressed in Escherichia coli assessed as remaining activity at 1 uM using MBP as substrate incubated for 30 mins in presence of [gamma-33P]ATP by filter binding method relative to control

Platelet-derived growth factor receptor alpha (Homo sapiens), sequence (P16234 whole entry, the tested form may be a part): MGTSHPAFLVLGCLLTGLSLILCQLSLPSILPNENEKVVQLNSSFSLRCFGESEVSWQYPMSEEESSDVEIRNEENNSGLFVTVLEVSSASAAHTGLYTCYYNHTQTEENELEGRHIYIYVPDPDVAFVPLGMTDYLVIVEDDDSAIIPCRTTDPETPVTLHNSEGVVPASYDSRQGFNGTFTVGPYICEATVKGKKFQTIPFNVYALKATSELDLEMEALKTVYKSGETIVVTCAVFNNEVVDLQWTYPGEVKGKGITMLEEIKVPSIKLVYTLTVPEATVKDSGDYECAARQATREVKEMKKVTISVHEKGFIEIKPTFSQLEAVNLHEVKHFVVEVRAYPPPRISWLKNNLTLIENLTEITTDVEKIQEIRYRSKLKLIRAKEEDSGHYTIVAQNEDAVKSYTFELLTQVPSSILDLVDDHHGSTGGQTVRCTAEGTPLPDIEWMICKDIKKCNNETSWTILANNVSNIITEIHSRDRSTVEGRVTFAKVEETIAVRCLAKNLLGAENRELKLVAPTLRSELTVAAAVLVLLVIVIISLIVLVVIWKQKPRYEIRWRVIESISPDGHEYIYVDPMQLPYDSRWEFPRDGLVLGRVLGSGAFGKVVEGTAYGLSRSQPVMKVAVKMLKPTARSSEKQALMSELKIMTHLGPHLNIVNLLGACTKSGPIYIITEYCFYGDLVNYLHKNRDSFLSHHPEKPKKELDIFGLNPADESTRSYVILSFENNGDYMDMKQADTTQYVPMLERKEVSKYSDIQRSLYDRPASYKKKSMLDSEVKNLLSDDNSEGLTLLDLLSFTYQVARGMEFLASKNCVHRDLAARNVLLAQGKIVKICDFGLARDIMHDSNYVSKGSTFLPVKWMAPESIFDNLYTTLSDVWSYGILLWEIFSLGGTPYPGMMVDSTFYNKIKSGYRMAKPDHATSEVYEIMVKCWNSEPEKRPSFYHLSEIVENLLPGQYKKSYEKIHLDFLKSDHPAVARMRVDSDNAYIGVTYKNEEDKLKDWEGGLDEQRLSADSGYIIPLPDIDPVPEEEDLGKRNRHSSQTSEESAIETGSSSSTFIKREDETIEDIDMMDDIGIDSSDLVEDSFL
Serine/threonine-protein kinase PAK 3 (Homo sapiens), sequence (O75914 whole entry, looked up): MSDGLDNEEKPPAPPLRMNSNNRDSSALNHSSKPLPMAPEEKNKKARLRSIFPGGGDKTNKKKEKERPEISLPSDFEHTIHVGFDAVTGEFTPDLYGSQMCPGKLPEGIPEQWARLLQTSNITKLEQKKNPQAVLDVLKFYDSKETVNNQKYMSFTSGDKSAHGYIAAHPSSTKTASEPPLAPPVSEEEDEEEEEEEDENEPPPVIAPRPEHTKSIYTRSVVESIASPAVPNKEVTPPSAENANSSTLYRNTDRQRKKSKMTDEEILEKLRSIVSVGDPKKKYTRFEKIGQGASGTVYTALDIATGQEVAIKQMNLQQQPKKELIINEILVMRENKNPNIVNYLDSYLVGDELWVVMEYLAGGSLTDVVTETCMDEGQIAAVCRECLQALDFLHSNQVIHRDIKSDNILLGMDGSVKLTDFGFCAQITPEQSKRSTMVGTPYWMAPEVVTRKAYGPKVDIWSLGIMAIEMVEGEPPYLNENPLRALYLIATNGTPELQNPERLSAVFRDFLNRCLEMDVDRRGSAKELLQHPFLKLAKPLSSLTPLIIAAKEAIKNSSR
Homeodomain-interacting protein kinase 3 (Homo sapiens), sequence (Q9H422 whole entry, looked up, the tested form may be a part): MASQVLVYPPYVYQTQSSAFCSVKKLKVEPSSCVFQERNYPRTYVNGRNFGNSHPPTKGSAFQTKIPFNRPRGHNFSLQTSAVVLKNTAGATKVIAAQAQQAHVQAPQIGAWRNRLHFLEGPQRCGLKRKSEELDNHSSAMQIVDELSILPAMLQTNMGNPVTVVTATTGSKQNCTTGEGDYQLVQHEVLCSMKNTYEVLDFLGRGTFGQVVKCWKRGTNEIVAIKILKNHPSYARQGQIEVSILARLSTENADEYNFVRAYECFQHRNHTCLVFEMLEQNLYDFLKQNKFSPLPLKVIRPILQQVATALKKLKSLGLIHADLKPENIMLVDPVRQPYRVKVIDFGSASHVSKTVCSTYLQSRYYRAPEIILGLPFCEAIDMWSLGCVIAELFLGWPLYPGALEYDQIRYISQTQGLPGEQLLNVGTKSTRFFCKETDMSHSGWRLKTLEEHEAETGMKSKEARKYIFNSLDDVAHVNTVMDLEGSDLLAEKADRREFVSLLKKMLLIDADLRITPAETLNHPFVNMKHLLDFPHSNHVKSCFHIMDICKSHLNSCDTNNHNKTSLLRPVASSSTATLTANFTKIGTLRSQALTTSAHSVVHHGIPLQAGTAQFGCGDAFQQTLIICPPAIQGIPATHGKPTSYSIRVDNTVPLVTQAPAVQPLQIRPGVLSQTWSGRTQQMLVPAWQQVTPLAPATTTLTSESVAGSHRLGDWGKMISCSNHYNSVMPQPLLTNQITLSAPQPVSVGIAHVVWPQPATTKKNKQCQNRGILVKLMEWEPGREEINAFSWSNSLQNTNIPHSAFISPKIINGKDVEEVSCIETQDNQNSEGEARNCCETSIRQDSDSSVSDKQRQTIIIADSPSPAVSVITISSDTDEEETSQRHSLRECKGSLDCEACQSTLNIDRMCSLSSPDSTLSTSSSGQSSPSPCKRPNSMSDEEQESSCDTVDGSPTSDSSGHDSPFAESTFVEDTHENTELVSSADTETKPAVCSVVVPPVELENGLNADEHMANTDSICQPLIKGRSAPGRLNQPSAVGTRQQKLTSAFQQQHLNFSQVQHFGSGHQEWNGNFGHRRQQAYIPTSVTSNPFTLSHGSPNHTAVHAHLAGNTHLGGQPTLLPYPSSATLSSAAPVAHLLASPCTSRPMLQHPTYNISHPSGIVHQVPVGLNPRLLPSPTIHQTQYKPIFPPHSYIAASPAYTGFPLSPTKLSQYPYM
Phosphatidylinositol 4-phosphate 5-kinase type-1 alpha, sequence (Q99755 whole entry): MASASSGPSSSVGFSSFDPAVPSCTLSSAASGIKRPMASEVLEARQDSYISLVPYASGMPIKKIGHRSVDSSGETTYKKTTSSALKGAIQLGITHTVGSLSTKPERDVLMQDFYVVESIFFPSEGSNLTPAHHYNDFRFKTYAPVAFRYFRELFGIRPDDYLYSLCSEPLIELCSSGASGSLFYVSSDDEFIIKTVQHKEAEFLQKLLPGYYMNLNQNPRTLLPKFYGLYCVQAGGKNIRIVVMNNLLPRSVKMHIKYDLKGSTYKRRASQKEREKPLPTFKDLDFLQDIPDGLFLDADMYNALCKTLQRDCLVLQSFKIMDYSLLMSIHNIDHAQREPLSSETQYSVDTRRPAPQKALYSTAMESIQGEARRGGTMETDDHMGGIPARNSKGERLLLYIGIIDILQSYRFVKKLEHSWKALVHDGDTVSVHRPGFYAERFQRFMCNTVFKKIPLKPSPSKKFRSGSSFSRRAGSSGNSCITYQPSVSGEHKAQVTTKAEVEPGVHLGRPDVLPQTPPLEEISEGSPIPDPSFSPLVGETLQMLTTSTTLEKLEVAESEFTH
Serine/threonine-protein kinase haspin (Homo sapiens), sequence (Q8TF76 whole entry, the tested form may be a part): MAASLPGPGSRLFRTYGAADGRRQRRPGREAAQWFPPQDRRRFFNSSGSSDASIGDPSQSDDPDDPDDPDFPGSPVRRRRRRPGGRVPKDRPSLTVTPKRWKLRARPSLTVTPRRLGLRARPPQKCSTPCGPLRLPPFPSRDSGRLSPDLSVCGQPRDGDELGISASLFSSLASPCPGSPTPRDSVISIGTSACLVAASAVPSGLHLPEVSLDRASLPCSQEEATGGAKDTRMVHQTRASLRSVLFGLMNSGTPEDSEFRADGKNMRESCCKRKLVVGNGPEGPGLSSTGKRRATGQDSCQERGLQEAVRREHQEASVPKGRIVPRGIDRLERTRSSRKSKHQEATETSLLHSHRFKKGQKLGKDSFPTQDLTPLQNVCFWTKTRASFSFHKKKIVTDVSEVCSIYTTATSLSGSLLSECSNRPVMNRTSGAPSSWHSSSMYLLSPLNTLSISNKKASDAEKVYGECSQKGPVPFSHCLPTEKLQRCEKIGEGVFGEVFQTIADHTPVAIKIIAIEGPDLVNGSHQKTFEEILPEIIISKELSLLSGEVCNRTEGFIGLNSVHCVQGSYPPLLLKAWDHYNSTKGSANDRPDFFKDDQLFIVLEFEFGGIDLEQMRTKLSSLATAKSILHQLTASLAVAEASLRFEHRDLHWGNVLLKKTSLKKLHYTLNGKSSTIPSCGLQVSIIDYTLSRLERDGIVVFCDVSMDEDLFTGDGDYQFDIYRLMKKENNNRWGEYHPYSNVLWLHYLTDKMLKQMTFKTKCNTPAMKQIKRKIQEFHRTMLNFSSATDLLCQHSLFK
Mitogen-activated protein kinase 13 (Homo sapiens), sequence (O15264 whole entry): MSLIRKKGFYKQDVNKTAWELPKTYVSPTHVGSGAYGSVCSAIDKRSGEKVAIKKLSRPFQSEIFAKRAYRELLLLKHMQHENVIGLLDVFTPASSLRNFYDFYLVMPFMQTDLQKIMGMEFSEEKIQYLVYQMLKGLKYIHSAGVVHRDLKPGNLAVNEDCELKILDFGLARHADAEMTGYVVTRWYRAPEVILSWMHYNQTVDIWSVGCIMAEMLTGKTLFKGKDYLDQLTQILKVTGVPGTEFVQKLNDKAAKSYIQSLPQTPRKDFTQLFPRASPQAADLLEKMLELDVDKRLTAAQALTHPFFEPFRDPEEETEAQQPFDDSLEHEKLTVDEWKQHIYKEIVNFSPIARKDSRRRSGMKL
Casein kinase I isoform gamma-3 (Homo sapiens), sequence (Q9Y6M4 whole entry, looked up, canonical isoform): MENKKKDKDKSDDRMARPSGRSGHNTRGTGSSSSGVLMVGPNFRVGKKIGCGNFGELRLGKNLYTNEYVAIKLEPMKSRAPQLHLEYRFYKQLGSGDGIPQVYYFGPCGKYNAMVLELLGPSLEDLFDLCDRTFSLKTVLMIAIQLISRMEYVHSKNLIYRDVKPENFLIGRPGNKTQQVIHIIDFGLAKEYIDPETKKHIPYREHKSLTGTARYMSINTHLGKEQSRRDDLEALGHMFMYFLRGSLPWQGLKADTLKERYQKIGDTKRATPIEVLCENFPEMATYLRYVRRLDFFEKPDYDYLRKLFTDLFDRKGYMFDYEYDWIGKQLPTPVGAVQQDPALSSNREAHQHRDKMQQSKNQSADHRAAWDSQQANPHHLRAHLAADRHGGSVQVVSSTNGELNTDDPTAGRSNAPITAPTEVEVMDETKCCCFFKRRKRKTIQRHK

CC(C)(O)CNc1ncc(-c2ccnc(Nc3ccnc(Cl)c3)n2)c(CC2CC2)n1
Activity [1]: 117%
IC50 [2]: > 10 µM
Activity [3]: 125%
inhibition [4]: inactive
inhibition [5]: inactive
inhibition [6]: inactive
inhibition [7]: inactive
Activity [8]: 121%
Activity [9]: 118%
Activity [10]: 106%
inhibition [11]: inactive
Activity [12]: 100%
inhibition [13]: inactive
inhibition [14]: inactive
inhibition [15]: inactive
inhibition [16]: inactive
inhibition [17]: inactive
inhibition [18]: inactive
inhibition [19]: inactive
inhibition [20]: inactive
IC50 [21]: 11.3 µM
inhibition [22]: inactive
inhibition [23]: inactive
inhibition [24]: inactive
inhibition [25]: inactive
Activity [26]: 109%
